This is an account of results in US10428044B2, “3-amino-1,5,6,7-tetrahydro-4H-indol-4-ones” (Bayer Pharma Aktiengesellschaft, priority 2014, dated 2019).

This test addresses (recombinant) catalytic domain of human Bub1 (amino acids 704-1085) (Homo sapiens (Human), UniProt O43683). Put plainly: Bub1 kinase assay (TR-FRET). Format: biochemical. To be noted: ATP 10 μM final, peptide substrate 1 μM final, 60 min at 22° C., read-out: Biological Assay: Bub1 kinase assay median IC50. The procedure, abridged:
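Compounds were serially diluted 1:3.4 from 2 mM DMSO stocks and incubated with the enzyme reaction for 60 min at 22° C. The reaction was stopped with EDTA, and biotinylated peptide phosphorylation was read by TR-FRET using Eu anti-mouse IgG, anti-phosphoserine antibody and streptavidin-XL665. IC50 was fitted by 4-parameter logistic to inhibition normalized to no-inhibitor and no-enzyme controls.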
For orientation: TR-FRET usually uses a lanthanide donor and a delayed reading to cut background.

A value given as a limit tells only on which side of the number the result lay.

Sequence of (recombinant) catalytic domain of human Bub1 (amino acids 704-1085) (O43683 704-1085): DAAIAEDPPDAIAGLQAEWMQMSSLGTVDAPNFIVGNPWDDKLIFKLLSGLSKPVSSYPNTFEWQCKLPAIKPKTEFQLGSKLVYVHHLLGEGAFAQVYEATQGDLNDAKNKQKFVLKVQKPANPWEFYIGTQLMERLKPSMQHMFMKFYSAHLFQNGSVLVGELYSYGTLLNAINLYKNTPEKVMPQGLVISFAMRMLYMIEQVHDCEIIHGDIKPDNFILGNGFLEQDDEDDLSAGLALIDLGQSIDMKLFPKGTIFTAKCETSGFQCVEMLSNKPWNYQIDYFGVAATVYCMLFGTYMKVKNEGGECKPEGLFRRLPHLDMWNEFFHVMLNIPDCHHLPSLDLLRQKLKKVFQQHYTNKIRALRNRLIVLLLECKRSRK

The IC50 is the concentration that gives 50% inhibition. Consider `CC1(C)CC(=O)c2c([nH]c(-c3ccncc3)c2Nc2ccc(Cc3ccccc3)cc2)C1` [Example 513, 3-[(4-benzylphenyl)amino]-6,6-dimethyl-2-(pyridin-4-yl)-1,5,6,7-tetrahydro-4H-indol-4-one], for which the IC50 was above 20 µM.

Turning to `CC1(C)CC(=O)c2c([nH]c(-c3ccncc3)c2Nc2ccc(Oc3ccccc3)cc2)C1` [Example 514, 6,6-dimethyl-3-[(4-phenoxyphenyl)amino]-2-(pyridin-4-yl)-1,5,6,7-tetrahydro-4H-indol-4-one], the 50% inhibitory concentration (IC50) was above 20 µM.
